How the values were obtained:
[1] = tested on: plasma cysteine, plasma glutathione and red blood cell glutathione; settings: in vivo; cited from earlier work
myocardial glutathione = settings: subsequent to experimental ischemia and reperfusion; cited from earlier work
[2] = Check for adverse immunologic or clinical reaction to low-dose oral PABA in Subject 1; type: in vivo, human; settings: oral PABA 100 mg three times per day with DL-methionine 500 mg and vitamin E 200 I.U.
Protocol: Subject 1 is an individual and having hereditary motor and sensory neuropathy. The subject's family has the X-linked subvariety of the disease. All of the composition ingredients of this example were administered via the oral route.
On Sep. 1, 1990 Subject 1 began taking three 100 mg tablets of p-aminobenzoic acid per day. This daily dosage consisted of single 100 mg tablets (Schiff Products, Moonachie, N.J.) taken one at a time approximately every eight hours. Also initiated at this time and taken three times per day: DL-methionine, 500 mg and vitamin E (as mix tocopherols in oil-based capsules), 200 I.U. Their weight at the time was approximately 165 lbs. The daily dosage times were approximately 8:00 AM, 4:00 PM and 11:30 PM. This original low dosage of PABA was selected in part as a check to ensure no adverse immunologic reaction. Symptoms of allergic reaction such as bronchial constriction or skin rash were not observed.

[3] = tested on: left median and ulnar nerves; assay: Nerve conduction studies on Subject 1 in the clinical trial of PABA with antioxidant and vitamin co-agents; type: in vivo, human; settings: for Latency: distal latency; for Latency / Amplitude / Conduction velocity: May 6, 1992 study; for Change in amplitude / Change in conduction velocity / Change in distal latency: May 6, 1992 vs Jun. 20, 1988
Protocol: Subject 1 is an individual and having hereditary motor and sensory neuropathy. The subject's family has the X-linked subvariety of the disease. All of the composition ingredients of this example were administered via the oral route. On Sep. 1, 1990 Subject 1 began taking three 100 mg tablets of p-aminobenzoic acid per day. This daily dosage consisted of single 100 mg tablets (Schiff Products, Moonachie, N.J.) taken one at a time approximately every eight hours. Also initiated at this time and taken three times per day: DL-methionine, 500 mg and vitamin E (as mix tocopherols in oil-based capsules), 200 I.U. Their weight at the time was approximately 165 lbs. The daily dosage times were approximately 8:00 AM, 4:00 PM and 11:30 PM. This original low dosage of PABA was selected in part as a check to ensure no adverse immunologic reaction. Symptoms of allergic reaction such as bronchial constriction or skin rash were not observed. […] On Oct. 1, 1990 Subject 1 began taking a total of 600 mg PABA per day by doubling the original dosage noted above; 200 mg taken three times per day. Also taken with PABA: DL-methionine, 500 mg and vitamin E, 200 I.U. On Jan. 1, 1991 Subject 1 began taking three 550 mg capsules of PABA (Solgar Co., Lynbrook, N.Y.) per day, one approximately every eight hours. DL-Methionine use was doubled to 1,000 mg every eight hours. Likewise, vitamin E deosage was doubled to 400 I.U. every eight hours. In addition, the following dietary supplements were initiated and taken once per day (4:00 PM): On Feb. 24, 1991 Subject 1 began taking six 550 mg capsules of PABA per day, two every eight hours plus the dietary supplement combination initiated January 1st. DL-Methionine and vitamin E dosage were continued as initiated January 1st; 3,000 mg and 1,200 I.U. total daily, respectively. Dosage of additional dietary supplements was also continued as initiated January 1st, with the addition of 100 mg vitamin B1 per day. Also, selenium daily dosage was reduced to 12 ug per day. As of May 1, 1991 consumption of pantothenic acid and vitamin B1 were tripled to 250 mg 3× daily and 100 mg 3× daily, respectively, taken with PABA. Also initiated now, vitamin B6, 100 mg taken 3× daily with PABA. As of Jul. 1, 1991 the methionine product was switched to “L-Methionine 500 mg Caps with Vitamin B6” (Nature's Plus, Farmingdale, N.Y.). Each capsule has the free form of the L-amino acid and 50 mg vitamin B6. This dose of vitamin B6 is in addition to the 300 mg/day noted in the preceding paragraph. As of Jul. 26, 1991 the vitamin E product was switched to “Natural Dry All E, 400 I.U.” (Schiff Products, Moonachie, N.J.). One of these dry powder capsules is taken 3× daily with PABA, as before. As of Aug. 7, 1991 daily doses of PABA, methionine and vitamin E were increased by 50%. Thus starting at this time, three 550 mg PABA capsules, three 500 mg methionine capsules, one 400 I.U. dry vitamin E and a 200 I.U. dry vitamin E capsule were taken at a time, three times per day. Daily totals of these agents were now: PABA, 4.95 gm; methionine, 4.5 gm; and vitamin E, 1,800 I.U. Other agents were taken as before. As of Nov. 22, 1991 the daily dose of PABA was increased. Thus starting at this time, four 550 mg PABA capsules were taken at a time, three times per day. Daily total of PABA was now 6.6 gm. Other agents were taken as before. On Jun. 20, 1988 Subject 1 participated in a nerve conduction research study at the National Institutes of Health. Nerve conduction data was recorded from the left median and ulnar nerves, which included conduction velocity, amplitude and distal latency for each nerve. On May 6, 1992 Subject 1 was tested again at the office of a neurologist in Bryn Mawr, Pa. This experimental drug trial involved a step-by-step increase in dosages over an extended period. […]

| SMILES | Levels of plasma cysteine, plasma glutathione and red blood cell glutathione [1] | Increase in myocardial glutathione (myocardial glutathione) | Clinical reaction to PABA [2] | Symptoms of allergic reaction such as bronchial constriction or skin rash [2] | Latency ([3]; left median nerve, after PABA up to 6.6 gm/day with co-agents, pre-treatment Jun. 20, 1988 value 12.4) | Amplitude ([3]; left median nerve, after PABA up to 6.6 gm/day with co-agents, pre-treatment Jun. 20, 1988 value 0.4) | Conduction velocity ([3]; left median nerve, after oral PABA raised stepwise from 300 mg/day to 6.6 gm/day (Sep 1990-May 1992) with methionine, vitamin E and vitamin co-agents, Subject 1, X-linked HMSN, pre-treatment Jun. 20, 1988 value 28) | Change in amplitude ([3]; left median nerve) | Change in conduction velocity ([3]; left median nerve) | Change in distal latency ([3]; left median nerve) | Latency ([3]; left ulnar nerve, after PABA up to 6.6 gm/day with co-agents, pre-treatment Jun. 20, 1988 value 13.8) | Amplitude ([3]; left ulnar nerve, after PABA up to 6.6 gm/day with co-agents, pre-treatment Jun. 20, 1988 value 1.3) | Conduction velocity ([3]; left ulnar nerve, after PABA up to 6.6 gm/day with co-agents, pre-treatment Jun. 20, 1988 value 29) | Change in amplitude ([3]; left ulnar nerve) | Change in conduction velocity ([3]; left ulnar nerve) | Change in distal latency ([3]; left ulnar nerve) |
| --- | --- | --- | --- | --- | --- | --- | --- | --- | --- | --- | --- | --- | --- | --- | --- | --- |
| CC(=O)N[C@@H](CS)C(=O)O [N-acetyl-cysteine] | increase | 100 fold | – | – | – | – | – | – | – | – | – | – | – | – | – | – |
| Nc1ccc(C(=O)O)cc1 [PABA, 4-Aminobenzoic acid] | – | – | no clinical reaction | not observed | 13.1 ms | 0.4 mV | 28.2 meters/sec | remained unchanged | remained unchanged | increased (that is, worsened) by six percent | 13.1 ms | 2.4 mV | 31.8 meters/sec | improved by eighty-five percent | improved by ten percent | improved by five percent |

— patent US6746678B1, “Method of treating neurological diseases and etiologically related symptomology using carbonyl trapping agents in combination with medicaments” (priority 1991, dated 2004)
